Source: patent publication US7868005B2, “Pyrazinyl substituted piperazine-piperidines with CXCR3 antagonist activity” (Schering Corporation, priority 2005, dated 2011)

Biological target: T1, human CXCR3 (N-delta 4) (Homo sapiens, UniProt P49682)
T1 construct: CD8 leader (N); Flag; expressed in transfected cells; membranes prepared
T1 sequence (P49682 5-368 limits assumed): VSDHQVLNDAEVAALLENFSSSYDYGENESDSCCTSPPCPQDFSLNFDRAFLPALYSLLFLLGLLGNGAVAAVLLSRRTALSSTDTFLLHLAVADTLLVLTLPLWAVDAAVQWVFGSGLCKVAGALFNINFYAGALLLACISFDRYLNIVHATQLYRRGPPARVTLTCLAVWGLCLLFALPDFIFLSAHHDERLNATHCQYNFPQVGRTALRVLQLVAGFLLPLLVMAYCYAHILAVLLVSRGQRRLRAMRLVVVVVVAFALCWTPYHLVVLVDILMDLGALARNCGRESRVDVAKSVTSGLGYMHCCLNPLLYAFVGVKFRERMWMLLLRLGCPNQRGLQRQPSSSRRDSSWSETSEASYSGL
Assay: Human CXCR3 (N-delta 4) Scintillation Proximity Assay (SPA), [125I] IP-10 binding to Ba/F3-hCXCR3 membranes
Conditions: IC50 rating, Table 1; read-out: IC50

| IC50 | Structure (SMILES) |
| --- | --- |
| < 25 nM | CC[C@H]1CN(c2ncc(C(=O)NC3CC3)nc2C)CCN1C1CCN(C(=O)c2ccc(F)cc2)CC1 [compound 447] |
| < 25 nM | CC[C@H]1CN(c2ncc(C(=O)NC3CC3)nc2C)CCN1C1CCN(Cc2ccc(C)c(F)c2)CC1 [compound 448] |
| < 25 nM | CC[C@H]1CN(c2ncc(C(=O)NC3CC3)nc2C)CCN1C1CCN(Cc2ccc(Cl)cc2)CC1 [compound 449] |
| < 25 nM | CC[C@H]1CN(c2ncc(C(=O)NC3CC3)nc2C)CCN1C1CCN(Cc2ccc(F)c(F)c2)CC1 [compound 450] |
| < 25 nM | CCNC(=O)c1cnc(N2CCN(C3CCN(C(=O)c4ccc(Cl)cc4)CC3)[C@@H](CC)C2)c(C)n1 [compound 451] |
| < 25 nM | CC[C@H]1CN(c2ncc(C(=O)NC)nc2C)[C@H](C)CN1C1CCN(C(=O)c2ccc(Cl)cc2)CC1 [compound 452] |
| < 25 nM | CC[C@H]1CN(c2ncc(C(N)=O)nc2C)[C@H](C)CN1C1CCN([C@@H](CO)c2ccc(Cl)cc2)CC1 [compound 453] |
| < 25 nM | CC[C@H]1CN(c2ncc(C(=O)NC)nc2C)CCN1C1CCN(C(=O)c2ccc(Cl)c(F)c2)CC1 [compound 454] |
| < 25 nM | CC[C@H]1CN(c2ncc(C(=O)NC)nc2C)CCN1C1CCN(C(=O)c2ccc(Cl)cc2F)CC1 [compound 455] |
| < 25 nM | CC[C@H]1CN(c2ncc(C(=O)NC)nc2C)CCN1C1CCN(C(=O)c2ccc(F)c(Cl)c2)CC1 [compound 456] |
| < 25 nM | CC[C@H]1CN(c2ncc(C(N)=O)nc2Cl)CCN1C1CCN([C@@H](CO)c2ccc(Cl)cc2)CC1 [compound 457] |
| < 25 nM | CC[C@H]1CN(c2ncc(C(N)=O)nc2Cl)CCN1C1CCN([C@H](CO)c2ccc(Cl)cc2)CC1 [compound 458] |
| < 25 nM | CC[C@H]1CN(c2ncc(C(=O)NC3CC3)nc2C)CCN1C1CCN(C(=O)c2ccc(C)c(F)c2)CC1 [compound 459] |
| < 25 nM | CC[C@H]1CN(c2ncc(C(=O)NC3CC3)nc2C)CCN1C1CCN(C(=O)c2ccc(Cl)cc2)CC1 [compound 460] |
| < 25 nM | CC[C@H]1CN(c2ncc(C(=O)NC3CC3)nc2C)CCN1C1CCN(C(=O)c2ccc(F)c(F)c2)CC1 [compound 461] |
| < 25 nM | CC[C@H]1CN(c2ncc(C(=O)NC3CC3)nc2C)CCN1C1CCN(C(=O)c2ccc(F)cc2F)CC1 [compound 462] |
| < 25 nM | CC[C@H]1CN(c2ncc(C(N)=O)nc2C)CCN1C1CCN([C@@H](C(=O)OC)c2ccc(Cl)cc2)CC1 [compound 463] |
| < 25 nM | CC[C@H]1CN(c2ncc(C(N)=O)nc2C)CCN1C1CCN(C(C(=O)OC)c2ccc(Cl)cc2)CC1 (stereo partly drawn) [compound 464] |
| < 25 nM | CC[C@H]1CN(c2ncc(C(=O)OC)nc2C)[C@H](C)CN1C1CCN([C@@H](CO)c2ccc(Cl)cc2)CC1 [compound 465] |
| < 25 nM | CC[C@H]1CN(c2ncc(C(N)=O)nc2C)[C@H](C)CN1C1CCN(Cc2ccc(OC(F)(F)F)cc2)CC1 [compound 466] |
| < 25 nM | CC[C@H]1CN(c2ncc(C(=O)NC3CC3)nc2C)CCN1C1CCN(C(=O)c2ccc(F)c(OC)c2)CC1 [compound 467] |
| < 25 nM | CC[C@H]1CN(c2ncc(C(=O)NC3CC3)nc2C)[C@H](C)CN1C1CCN(C(=O)c2ccc(Cl)cc2)CC1 [compound 468] |
| < 25 nM | CC[C@H]1CN(c2ncc(C(=O)NC3CC3)nc2C)CCN1C1CCN([C@@H](CO)c2ccc(Cl)cc2)CC1 [compound 469] |

| IC50 | Structure (SMILES) |
| --- | --- |
| < 25 nM | CC[C@H]1CN(c2ncc(C(=O)NC3CC3)nc2C)CCN1C1CCN([C@H](CO)c2ccc(Cl)cc2)CC1 [compound 470] |
| < 25 nM | CC[C@H]1CN(c2ncc(C(=O)NC3CC3)nc2C)CCN1C1CCN([C@@H](CO)c2ccc(F)c(F)c2)CC1 [compound 471] |
| < 25 nM | CC[C@H]1CN(c2ncc(C(=O)NC3CC3)nc2C)CCN1C1CCN([C@H](CO)c2ccc(F)c(F)c2)CC1 [compound 472] |
| < 25 nM | CC[C@H]1CN(c2ncc(C(=O)NC3CC3)nc2C)CCN1C1CCN(Cc2ccc(C(F)(F)F)cc2)CC1 [compound 473] |
| < 25 nM | CCNC(=O)c1cnc(N2C[C@H](CC)N(C3CCN(C(=O)c4ccc(Cl)cc4)CC3)C[C@H]2C)c(Cl)n1 [compound 474] |
| < 25 nM | CC[C@H]1CN(c2ncc(C(=O)NC)nc2C)CCN1C1CCN(C(=O)c2ccc(OC(F)(F)F)cc2)CC1 [compound 475] |
| < 25 nM | CC[C@H]1CN(c2ncc(C(N)=O)nc2Cl)CCN1C1CCN([C@@H](C(=O)OC)c2ccc(Cl)cc2)CC1 [compound 476] |
| < 25 nM | CC[C@H]1CN(c2ncc(C(=O)NC)nc2C(F)(F)F)CCN1C1CCN(C(=O)c2ccc(Cl)cc2)CC1 [compound 477] |
| < 25 nM | CC[C@H]1CN(c2ncc(C(N)=O)nc2C(F)(F)F)[C@H](C)CN1C1CCN(C(=O)c2ccc(Cl)cc2)CC1 [compound 478] |
| < 25 nM | CC[C@H]1CN(c2ncc(C(=O)NC3(C)CC3)nc2C)[C@H](C)CN1C1CCN(C(=O)c2ccc(Cl)cc2)CC1 [compound 479] |
| < 25 nM | CC[C@H]1CN(c2nc(N)c(C(=O)NC3CC3)nc2C)[C@H](C)CN1C1CCN(C(=O)c2ccc(Cl)cc2)CC1 [compound 480] |
| < 25 nM | CC[C@H]1CN(c2ncc(C(=O)NC3CC3)nc2C)[C@H](C)CN1C1CCN([C@H](CO)c2ccc(Cl)cc2)CC1 [compound 481] |
| < 25 nM | CC[C@H]1CN(c2nc(N)c(C(=O)NCCO)nc2C)[C@H](C)CN1C1CCN(C(=O)c2ccc(Cl)cc2)CC1 [compound 482] |
| < 25 nM | CC[C@H]1CN(c2ncc(C(=O)NC3CC3)nc2C)CCN1C1CCN(C(=O)c2ccc(C(F)(F)F)cc2)CC1 [compound 483] |
| < 25 nM | CCNC(=O)c1cnc(N2CCN(C3CCN(C(=O)c4ccc(Cl)cc4)CC3)[C@@H](CC)C2)c(C(F)(F)F)n1 [compound 484] |
| < 25 nM | CC[C@H]1CN(c2ncc(C(=O)NC3CC3)nc2C)CCN1C1CCN([C@@H](C(=O)OC)c2ccc(Cl)cc2)CC1 [compound 485] |
| < 25 nM | CC[C@H]1CN(c2ncc(C(=O)NC3CC3)nc2C)CCN1C1CCN([C@@H](C(=O)OC)c2ccc(F)c(F)c2)CC1 [compound 486] |
| < 25 nM | CCc1ccc(C(=O)N2CCC(N3CCN(c4ncc(C(=O)NC5CC5)nc4C(F)(F)F)C[C@@H]3CC)CC2)cc1 [compound 487] |
| < 25 nM | CC[C@H]1CN(c2ncc(C(=O)NCCO)nc2C)[C@H](C)CN1C1CCN(Cc2ccc(OC(F)(F)F)cc2)CC1 [compound 488] |
| < 25 nM | CC[C@H]1CN(c2ncc(C(=O)NC3CC3)nc2C(F)(F)F)CCN1C1CCN(C(=O)c2ccc(Cl)cc2)CC1 [compound 489] |
| < 25 nM | CC[C@H]1CN(c2ncc(C(=O)NC3CC3)nc2C(F)(F)F)CCN1C1CCN(C(=O)c2ccc(F)c(F)c2)CC1 [compound 490] |
| < 25 nM | CC[C@H]1CN(c2ncc(C(=O)NC3CC3)nc2C)CCN1C1CCN(Cc2ccc(Cl)c(OCCS(C)(=O)=O)c2)CC1 [compound 492] |
